Measurements reported in patent publication US20200102295A1, “NITROCATECHOL DERIVATIVES AS COMT INHIBITORS” (BIAL - PORTELA & CA, S.A., priority 2005, published 2020).

How the values were obtained:
mouse liver COMT = biological target: T1, mouse liver COMT (Mus musculus, UniProt O88587); test: Mouse liver COMT activity after oral administration of test compounds; format: in vivo; conditions: 3 mg/kg oral, 3 h after administration
T1 construct: Aliquots of 0.5 ml of liver homogenates were preincubated; from tissue; host or cells: mouse liver homogenate (NMRI mice, dosed orally; ex vivo activity)
T1 sequence (O88587 1-265): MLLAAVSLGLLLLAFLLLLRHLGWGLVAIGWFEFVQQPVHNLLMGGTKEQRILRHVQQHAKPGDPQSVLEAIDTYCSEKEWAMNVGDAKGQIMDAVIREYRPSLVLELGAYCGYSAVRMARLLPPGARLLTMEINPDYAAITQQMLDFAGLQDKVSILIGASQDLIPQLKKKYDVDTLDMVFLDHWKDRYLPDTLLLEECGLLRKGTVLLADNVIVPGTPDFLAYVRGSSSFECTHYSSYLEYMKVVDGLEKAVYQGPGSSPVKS

[1] = test system: Neuro 2A mouse neuroblastoma cells; test: Cell toxicity: Neuro 2A cell viability (calcein-AM); format: cell-based; conditions: Neuro 2A cells, 30 μM, 24 h exposure
rat liver COMT = biological target: T2, rat liver COMT (Rattus norvegicus, UniProt P22734); test: Rat liver COMT activity after oral administration of test compounds; format: in vivo; conditions: for Rat Liver COMT activity (% control): 3 mg/kg oral
T2 construct: the organs were immediately removed and homogenised in 5 mM phosphate buffer of pH 7.8; from tissue; host or cells: rat liver homogenate (Wistar rats, dosed orally; ex vivo activity)
T2 sequence (P22734 1-264): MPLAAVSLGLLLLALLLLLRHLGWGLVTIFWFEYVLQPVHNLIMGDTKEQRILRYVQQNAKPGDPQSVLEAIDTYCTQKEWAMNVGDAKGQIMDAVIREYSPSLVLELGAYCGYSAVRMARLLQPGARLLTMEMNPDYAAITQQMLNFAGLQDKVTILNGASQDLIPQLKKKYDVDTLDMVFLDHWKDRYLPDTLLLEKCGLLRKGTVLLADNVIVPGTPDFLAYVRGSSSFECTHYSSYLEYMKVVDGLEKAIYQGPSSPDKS

[2] = test system: plasma levels of L-DOPA and 3-O-methyl-L-DOPA (3-OMD); test: Levels of L-DOPA and 3-O-methyl-L-DOPA in plasma of rats treated with L-DOPA plus benserazide; format: in vivo, rat; conditions: 3 mg/kg oral, 2 h after administration

## Cc1ccc(C(=O)c2cc(O)c(O)c([N+](=O)[O-])c2)cc1 [Tolcapone, 3,4-dihydroxy-4′ -methyl-5-nitrobenzophenone, reference compound]
Mouse liver COMT
  COMT activity (% of control): 13.9 % of control
[1]
  % of viable cells: 27.2%
Rat liver COMT; 1 h after administration
  Rat Liver COMT activity (% control): 18.3 % control
Rat liver COMT; 3 h after administration
  Rat Liver COMT activity (% control): 28.6 % control
Rat liver COMT; 6 h after administration
  Rat Liver COMT activity (% control): 56.8 % control
Rat liver COMT; 9 h after administration
  Rat Liver COMT activity (% control): 83.9 % control
Rat liver COMT; rat, po, read-out: COMT inhibition nine hours after administration
  inhibition at 3 mg/kg: ~16%
[2]; L-DOPA plus benserazide 1 h before plasma collection
  L-DOPA % increase (plasma level, % control): 202.4%
[2]; L-DOPA plus benserazide 1 h before plasma collection, given with minus sign
  3-OMD % reduction (plasma level, % control): −89.0%
[2]; plasma ratio
  L-Dopa/3-OMD: 27.6
